In PMC10609273, “Radiosynthesis and Early Evaluation of a Positron Emission Tomography Imaging Probe [^18F]AGAL Targeting Alpha-Galactosidase A Enzyme for Fabry Disease” (Molecules, 2023):

Experiments:
[1] = Stability of the formulated product by analytical HPLC; assay type: physicochemical
Method: Stability of the product was monitored via analytical HPLC over time.
Approximately 2000 mCi of [^18F]fluoride was produced on a GE PETtrace 800 cyclotron and delivered to the ^18F target delivery vial of a GE FX2 N radiosynthesis module (Figure 4). The irradiated target water was passed through a pre-conditioned Sep-PAK Light QMA Cartridge to trap [^18F]fluoride, followed by elution from the cartridge into reactor 1 using 3 mg […] and 13 mg Cryptand 222 in 0.6 mL of 50% acetonitrile in water. The contents of reactor 1 were dried via azeotropic distillation using a combination of heating, helium flow, and vacuum. An additional 1 mL of acetonitrile was introduced to reactor 1 and the azeotropic drying process was repeated. The reactor temperature was then reduced to 30 °C, followed by introduction of 4-pentynyl p-tosylate (10 mg, ABX GmbH, Radeberg, Germany) in 1.0 mL acetonitrile (anhydrous). The reactor was then sealed and heated to 110 °C and allowed to react with stirring for 3 min. Reactor 1 was then opened to reactor 2, with the reactor 1 needle in the “up” position. […]

wild type mice = experiment: Dynamic in vivo PET/CT imaging after intravenous injection; set-up: species or system mouse; conditions: i.v.
Method: After intravenous injection of [^18F]AGAL in wild type mice, the radioactivity rapidly accumulated in key organs such as the kidneys, liver, and heart, with the kidneys having the highest peak standardized uptake value (SUV ~18) at 3 min followed by rapid washout from all organs to lower than 1 SUV by 30 min and remaining low until the end of the 90 min scan (Figure 6A,B).
Figure 6 Dynamic in vivo PET/CT imaging in wild type mice after [^18F]AGAL intravenous injection. Time course of average radioactivity concentrations (n = 4, Mean ± SD) from various organs shown for full 90 min (A) and first 10 min (B) after tracer injection. (C) Representative coronal sections of PET/CT scan images from a wild type mouse with frames averaged between 0–2 min, 2–10 min, 10–30 min, 30–60 min, and 60–90 min are shown. SUV: Standardized uptake value.
[^18F]AGAL PET imaging was performed on a dedicated small animal PET/CT scanner (Siemens Multimodality Inveon, Siemens Medical Solutions USA Inc., Knoxville, TN, USA). The wild-type mice (n = 3, male 129S6) were anesthetized with 3% isoflurane/medical air inhalation prior to the radiotracer injection and throughout the scan duration. A bolus intravenous injection (via the lateral tail vein) of [^18F]AGAL (~7.4 MBq) was administered followed by dynamic PET scans in list mode for 90 min. After the PET acquisition, a low-dose CT scan was acquired (80 kVp, 0.5 mA) for anatomical reference and to provide guidance for the delineation of selected tissues volume of interest (VOI). The acquired PET data were sorted into 0.5 mm sinogram bins and 25 time frames (4 × 15 s, 4 × 60 s, and 17 × 300 s) for image reconstruction using FORE/3D-OSEM-MAP. The reconstructed PET/CT images were analyzed with the Siemens Inveon Research Workplace software v4.0 or other appropriate software. The radioactivity retention within the selected tissue was obtained from mean voxel intensity values within the VOI and then converted to megabecquerels per milliliter using the calibration factor determined for the Inveon PET System. […]

- decrease in RCP ([1]; after 6 h, with sodium ascorbate in the formulation (5 mg/mL)): less than 3%
- decrease in RCP ([1]; after 6 h at room temperature, 10% EtOH in saline): 5–8%
- bone uptake (tracer defluorination) (wild type mice; PET images): No bone uptake
- peak standardized uptake value (SUV), kidneys (wild type mice; at 3 min): ~ 18 SUV
- standardized uptake value after washout, all organs (wild type mice; by 30 min until end of 90 min scan): lower than 1 SUV
SMILES: O=C(CCCCCCCn1cc(CCC[18F])nn1)N1C2C(O)C(O)C(O)C(CO)C21 (centres unmarked) [[^18F]AGAL]
